Test results: patent US5079260A, “Method for treating inflammation and compounds and compositions suitable for use therein” (Nova Pharmaceutical Corporation, priority 1990, dated 1992)
Where a name gives a salt, the structure may show the parent alone.

Columns and labels:
[1] = system: Ear Edema Caused by Arachidonic Acid; assay: Inhibition of Ear Edema Caused by Arachidonic Acid (II), Table 8; assay type: in vivo, CF-1 mice; conditions: i.p., sixty minutes
Method: Inhibition of Ear Edema Caused by Arachidonic Acid (II)
CF-1 mice, 25-30 g body weight, six animals per group, were used. The requisite amount of the test compound was dissolved is dimethyl sulfoxide or 0.5% methylcellulose and 100 μL of the solution was injected intraperitoneally 30 minutes prior to the administration of 100 mg/kg of arachidponic acid. A solution of this irritant, b 100 mg/mL in ethanol, was applied to the surface of the ear, 5 μL to the upper surface and 5 μL to the lower surface. After sixty minutes, the thickness of the ear was measured to 0.01 mm by a micrometer with the loose drag positioned at the lateral-most edge of the mid-point of the pinna. Data were calculated as the percent inhibityion by the test compound of increased ear thickness compared to control animals recieveing only the irritant.

[2] = system: Ear Edema Caused by Oxazolone; assay: Inhibition of Ear Edema Caused by Oxazolone (II), Table 10; assay type: in vivo, CF-1 mice; conditions: i.p., 24 h
Method: Inhibition of Ear Edema Caused by Oxazolone (II)
CF-1 mice, 25-30 g body weight, five to six animals per group were used. The mice were sensitized to the irritant two weeks prior to the test by dribbling 100 μL of a 3% solution of oxazolone in acetone onto the abdominal skin of the animal. Test compounds were administered intraperitoneally as follows. […] The irritant, 3% oxazolone in acetone, was added to the surface of the ear, 5 μL added to the upper surface and 5 μL added to the lower surface. After twenty four hours, the thickness of the ear was measured to 0.01 mm by a micrometer with loose drag, positioned at the lateral-most edge of the mid-point of the pinna. Data were calculated as the inhibition of increased ear thickness compared to control animals' receiving only the irritant.

[3] = system: Reverse Passive Artus Reaction; assay: Reverse Passive Artus Reaction (II), Table 11; assay type: in vivo, Male CD rats; conditions: inhibition of blueing, i.p.
Method: Reverse Passive Artus Reaction (II) Male CD rats weighing between 200 and 250 g were used. […] The animals were anesthetized inhalationally with isoflurane and then injected through the penile vein with 1 mL of a solution of 2.5 mg of Evan's blue dye and 5.0 mg of human serum albumin in 1 mL of saline. This treatment was followed immediately by intracutaneous injections of 0.03 mL of anti-human albumin diluted to contain 3.65 mg of antibody at 3 sites along the midline back. Anesthesia was terminated and after three hours, the animals were sacrificed. The skin was removed and the blue stained areas cut out. The skin patches were soaked overnight in stoppered tubes containing 1 mL of 1 N potassium hydroxide at 37° C. Then 9 mL of a mixture of five parts of a 0.6 N phosphoric acid and thirteen parts of acetone were added to the tubes. The tube contents were agitated and centrifuged, and the absorbance measured at 620 nm. The data were calculated as inhibition of blueing by test compound compared to control animals receiving only antigen and antibody.

[4] = system: Ear Edema Caused By Tetradecanoylphorbol Acetate; assay: Inhibition of Ear Edema Caused by Tetradecanoylphorbol Acetate (II), Table 7; assay type: in vivo, CF-1 Mice; conditions: 3 h; for % Inhibition Intraperitoneal: i.p.
Method: Inhibition of Ear Edema Caused by Tetradecanoylphorbol Acetate (II)
CF-1 Mice, 25-30 g body weight, six animals per group were used. Test compounds were administered intraperitoneally or topically as follows. For intraperitoneal administration, the test compound was dissolved in dimethyl sulfoxide or 0.5% methylcellulose and 100 microliters was injected 30 minutes prior to irritant (100 mg/kg, i.p.). […] A solution of the irritant, tetradecanoylphorbol acetate, 200 μg/mL, was added to the surface of the ear, 5 μL to the upper surface and 5 μL to the lower surface. After three hours, the thickness of the ear was measured to 0.01 mm by a micrometer with loose drag, positioned at the lateral-most edge of the mid-point of the pinna. Data were calculated as the inhibition of increased ear thickness compared to control animals receiving only the irritant.

[5] = system: Ear Edema Caused by Xylene; assay: Inhibition of Ear Edema Caused by Xylene (II), Table 9; assay type: in vivo, CF-1 mice; conditions: i.p., 2 h
Method: Inhibition of Ear Edema Caused by Xylene (II)
CF-1 mice, 25-30 g body weight, six animals per group, were used. The requisite amount of the test compound was dissolved is dimethyl sulfoxide or 0.5% methylcellulose and 100 μL of the solution was injected intraperitoneally 30 minutes prior to the administration the irritant. The irritant xylene was applied to the surface of the ear, 20 μL to the upper surface and 20 μL to the lower surface, After two hours, the thickness of the ear was measured to 0.01 mm by a micrometer with the loose drag positioned at the lateral-most edge of the mid-point of the pinna. Data were calculated as the percent inhibition by the test compound of increased ear thickness compared to control animals receiving only the irritant.

Compound | % Inhibition Intraperitoneal ([1]; 100 mg/kg) [%] | % Inhibition Intraperitoneal ([3]; 100 mg/kg) [%] | % Inhibition Intraperitoneal ([4]; 100 mg/kg) [%] | % Inhibition Intraperitoneal ([2]; 10 mg/kg) [%] | % Inhibition Intraperitoneal ([2]; 30 mg/kg) [%] | % Inhibition Intraperitoneal ([2]; 100 mg/kg) [%] | % Inhibition Intraperitoneal ([4]; 10 mg/kg) [%] | % Inhibition Intraperitoneal ([4]; 30 mg/kg) [%] | % Inhibition Intraperitoneal ([1]; 10 mg/kg) [%] | % Inhibition Intraperitoneal ([1]; 30 mg/kg) [%] | % Inhibition ([5]; 10 mg/kg) [%] | % Inhibition ([5]; 30 mg/kg) [%] | % Inhibition ([5]; 100 mg/kg) [%] | also measured
COc1ccc2c(c1)c(CC(=O)O)c(C)n2C(=O)c1ccc(Cl)cc1 [Indomethacin, reference compound] | 1 | – | – | – | – | – | – | – | – | – | – | – | – | % Inhibition Intraperitoneal ([2]; 1 mg/kg): 4%; % Inhibition Intraperitoneal ([2]; 3 mg/kg): 35%; % Inhibition Intraperitoneal ([3]; 1 mg/kg): 5%; % Inhibition Intraperitoneal ([3]; 3 mg/kg): 26%; % Inhibition Intraperitoneal ([3]; 10 mg/kg): 27%
COC(=O)[C@H](CC(C)C)NC(=O)OCC1c2ccccc2-c2ccccc21 [NPC 15326, N-[(9H-Fluoren-9-ylmethoxy)carbonyl]-L-leucine methyl ester] | – | 19 | – | – | – | – | – | – | – | – | – | – | – | –
CC(C)CC(CO)NC(=O)OCC1c2ccccc2-c2ccccc21 (centres unmarked) [NPC 15427, 2-{N-[(9H-Fluoren-9-ylmethoxy)carbonyl]amino}-4-methylpentanol] | – | 14 | – | – | – | – | – | – | – | – | – | – | – | –
CC(C)C[C@H](NC(=O)OCC1c2ccccc2-c2ccccc21)C(=O)OCC(O)CO (some centres unmarked) [NPC 15430] | – | 48 | – | – | – | – | – | – | – | – | – | – | – | –
CC(C)C[C@H](NC(=O)CCC1c2ccccc2-c2ccccc21)C(=O)O [NPC 15476, N-[3-(9H-Fluoren-9-yl)propionyl]-L-leucine] | – | 56 | 64 | 0 | 5 | 43 | – | – | – | – | – | – | – | –
Cc1ccc2c(c1)C(COC(=O)N[C@@H](CC(C)C)C(=O)O)c1ccccc1-2 (stereo partly drawn) [NPC 15477, N-{[9H-(2-Methylfluoren-9-yl)methoxy]carbonyl}-L-leucine] | 82 | 53 | 72 | 3 | 14 | 43 | 35 | 37 | 10 | 58 | 41 | 53 | 69 | –
COc1ccc2c(c1)C(COC(=O)N[C@@H](CC(C)C)C(=O)O)c1ccccc1-2 (stereo partly drawn) [NPC 15489, N-[(2-Methoxyfluoren-9-ylmethoxy)carbonyl]-L-leucine] | – | 64 | – | – | – | – | – | – | – | – | – | – | – | –
CC(C)C[C@H](NC(=O)OCCC1c2ccccc2-c2ccccc21)C(=O)O [NPC 15521, N-[(9H-Fluoren-9-ylethoxy)carbonyl]-L-leucine] | 69 | 63 | 77 | 39 | 45 | 74 | 33 | 37 | 34 | 41 | 20 | 15 | 57 | –
CC(C)C[C@H](NC(=O)OCC1c2ccccc2-c2ccccc21)C(=O)OC(C)(C)C [NPC 15527, N-[(9H-Fluoren-9-ylmethoxy)carbonyl]-L-leucine t-butyl ester] | – | 4 | 74 | 31 | 33 | – | 54 | 54 | 21 | 47 | 42 | 34 | 50 | % Inhibition Intraperitoneal ([1]; 110 mg/kg (so in the source)): 68%; % Inhibition Intraperitoneal ([2]; 110 mg/kg (so in the source)): 54%
CNC(=O)[C@H](CC(C)C)NC(=O)OCC1c2ccccc2-c2ccccc21 [NPC 15529, N-[(9H-Fluoren-9-ylmethoxy)carbonyl]-L-leucine methylamide] | 29 | 0 | 78 | 32 | 41 | 76 | 67 | 67 | 16 | 32 | 50 | 47 | 50 | –
CC(C)(C)[C@H](NC(=O)OCC1c2ccccc2-c2ccccc21)C(=O)O [NPC 15573, N-[(9H-Fluoren-9-ylmethoxy)carbonyl]-L-tert-leucine] | 42 | 50 | 75 | – | 28 | 48 | 39 | 52 | 27 | 32 | 23 | 17 | – | % Inhibition, topical ([4]; dose 10 (mg/kg)): 20%; % Inhibition, topical ([4]; dose 30 (mg/kg)): 31%; % Inhibition, topical ([4]; dose 100 (mg/kg)): 38%
Cc1cccc2c1C(COC(=O)N[C@@H](CC(C)C)C(=O)O)c1ccccc1-2 (stereo partly drawn) [NPC 15638, N-{[9H-(1-Methylfluoren-9-yl)methoxy]carbonyl}-L-leucine] | 65 | 68 | 62 | – | 67 | 74 | 23 | 12 | – | – | 37 | 66 | 82 | –
Cc1cccc2c1-c1c(C)cccc1C2COC(=O)N[C@@H](CC(C)C)C(=O)O [NPC 15670] | – | 82 | 150 | -36 | 43 | – | 27 | 117 | – | – | 78 | 46 | 50 | –
CC(C)C[C@H](NC(=O)CCC1c2ccccc2-c2ccccc21)C(=O)O [NPC 15672, N-{9H-[3-Fluorenyl-9)propionyl]}-L-leucine, sodium salt] | – | – | – | – | – | – | 54 | 21 | – | – | – | – | – | % Inhibition Intraperitoneal ([4]; 100 mg/kg, sodium salt): 66%; % Inhibition Intraperitoneal ([2]; 10 mg/kg, sodium salt): 11%; % Inhibition Intraperitoneal ([2]; 30 mg/kg, sodium salt): 19%; % Inhibition Intraperitoneal ([2]; 100 mg/kg, sodium salt): 35%; % Inhibition Intraperitoneal ([3]; 100 mg/kg, sodium salt): 34%
